Source: publication PMC6743422, “Preclinical disposition of MGS0274 besylate, a prodrug of a potent group II metabotropic glutamate receptor agonist MGS0008 for the treatment of schizophrenia” (Pharmacology Research & Perspectives, 2019)
Values joined by “and” are separate entries in the source; they are usually repeats but may differ in a detail not shown here. Identical values can stand only once. Like-named read-outs stand apart in the source and are kept apart here.

Assays:
[1] = system: rat cryopreserved hepatocytes; test: In vitro metabolite profiling in rat cryopreserved hepatocytes; assay type: in vitro ADME; details: rat hepatocytes
Method: (§1) Rat, monkey, or human cryopreserved hepatocytes in Leivovitz L‐15 medium at 0.5 million cells/mL were incubated at 37°C for 1 hour with [^14C]MGS0274 besylate at 10 μmol/L. The reaction was terminated by adding 10% w/v trichloroacetic acid solution, and the resultant mixture was centrifuged. Aliquots of the supernatant were subjected to bioanalysis using high‐performance liquid chromatography equipped with radiochemical flow detection (RI‐HPLC) (see Table S1‐B). Aliquots of the supernatant from unlabeled incubation samples and authentic standards were also injected into a liquid chromatography‐mass spectrometry (LC‐MS) system under the same chromatographic conditions to compare their chromatographic retention times and mass spectral data (see Table S1‐B).

[2] = Plasma and CSF distribution of MGS0008 in rats; assay type: in vivo; details: Wistar, rat, fasted male rats, MGS0008 oral 3 mg/kg
Method: (§2) The pharmacokinetic profiles of MGS0008 and MGS0274 were investigated in fasted male Wistar rats (n = 3) and fed male cynomolgus monkeys (n = 4). Monkeys had been given 60 g of a primate diet (PS‐A; Oriental Yeast, Tokyo, Japan) one hour before administration. For intravenous administration, MGS0008 was dissolved in saline (pH7.4) and administered to rats (3 mg/kg) and monkeys (1 mg/kg). Blood samples were collected from the tail vein (rats) or the forelimb cephalic vein (monkeys) into tubes containing EDTA‐2K at 5, 15, and 30 minutes and at 1, 2, 4, 8, and 24 hours postdose for both species, and an additional sample was collected at 12 hours postdose for monkeys. Urine samples were collected until 48 hours at 24‐hour intervals (rats) or at 0‐ to 8‐hour, 8‐ to 24‐hour, and 24‐ to 48‐hour intervals (monkeys). The plasma or urine samples was mixed with acetonitrile/methanol (9:1, v/v) containing [^13C2 ^15N]MGS0008 and centrifuged. Aliquots of the supernatant were subjected to bioanalysis using LC‐MS/MS (see Table S1‐E). For oral administration, MGS0008 was dissolved in distilled water (rats) or 0.5% w/v methylcellulose 400 (monkeys) and administered to rats (3 mg/kg) and monkeys (1 mg/kg). MGS0274 besylate was suspended in 0.5% w/v methylcellulose 400 containing 0.1% v/v Tween 80 and administered to monkeys at a dose of 2.89 mg/kg (1‐mg equivalent of MGS0008/kg). Blood samples were collected from the tail vein (rats) or the forelimb cephalic vein (monkeys) into tubes containing EDTA‐2K at 30 minutes, 1, 1.5, 2, 4, 6, 8, and 24 hours postdose for rats, and 30 minutes, 1, 2, 4, 8, 12, and 24 hours postdose for monkeys. The plasma samples were mixed with acetonitrile/methanol (9:1, v/v) containing internal standards ([^13C2 ^15N]MGS0008 and MGS0039) and centrifuged. Aliquots of the supernatant were subjected to bioanalysis using LC‐MS/MS (see Tables S1‐E and F). In the study examining the tissue distribution of MGS0008 in rats (3 mg/kg), blood samples were collected from the posterior vena cava into tubes containing EDTA‐2K under isoflurane anesthesia at 1.5, 4, 6, or 24 hours postdose. Then, the animals were euthanized by exsanguination from the abdominal aorta; cerebrospinal fluid (CSF) samples were drawn from the spinal cord space in each animal. The plasma or CSF was mixed with acetonitrile/methanol (9:1, v/v) containing [^13C2 ^15N]MGS0008 and centrifuged. Aliquots of the supernatant were subjected to bioanalysis using LC‐MS/MS (see Table S1‐E).
(§3) The plasma concentration‐time profiles of MGS0008 and MGS0274 were analyzed using a non‐compartmental analysis method with pharmacokinetic analysis software Phoenix® WinNonlin® 6.2 or later (Certara, Princeton, NJ).

[3] = system: mGlu2/3 receptors; details: cited from earlier work
[4] = biological target: CYP3A (Homo sapiens, UniProt P08684); test: CYP inhibition in human liver microsomes, CYP3A; assay type: in vitro ADME; details: probe testosterone (6β-hydroxytestosterone formation), human liver microsomes 0.1 mg/mL, metabolite 6β-Hydroxytestosterone
CYP3A, sequence (P08684 2-503): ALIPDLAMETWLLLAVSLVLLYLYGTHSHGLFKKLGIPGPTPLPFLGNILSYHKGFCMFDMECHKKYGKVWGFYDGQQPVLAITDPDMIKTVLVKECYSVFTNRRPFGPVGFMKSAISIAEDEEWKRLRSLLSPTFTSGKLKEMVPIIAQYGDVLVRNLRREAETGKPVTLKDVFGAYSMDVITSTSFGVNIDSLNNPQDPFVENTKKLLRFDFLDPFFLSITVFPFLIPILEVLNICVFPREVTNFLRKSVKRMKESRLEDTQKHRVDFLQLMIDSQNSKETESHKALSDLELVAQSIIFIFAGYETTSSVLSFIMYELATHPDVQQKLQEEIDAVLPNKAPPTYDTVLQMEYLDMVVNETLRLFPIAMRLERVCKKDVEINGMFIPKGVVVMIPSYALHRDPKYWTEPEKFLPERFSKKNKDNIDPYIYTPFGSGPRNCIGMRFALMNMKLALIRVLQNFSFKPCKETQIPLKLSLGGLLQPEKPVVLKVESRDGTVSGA
Method: The inhibition potential of MGS0008 (0.3‐100 µmol/L) and MGS0274 besylate (0.03‐10 µmol/L) on the activity of human cytochrome P450 (CYP) isoforms (CYP1A2, 2B6, 2C8, 2C9, 2C19, 2D6, and 3A) was investigated using probe substrates for each CYP isoform and human liver microsomes, of which the final protein concentration was set at 0.1 mg/mL (see Table S2). The assay was started by spiking the reaction mixture, which had been pre‐incubated at 37°C for 5 minutes, with NADP^+. After incubation for 5 to 10 minutes, the reaction was terminated by adding acetonitrile containing an internal standard for each probe substrate, and the resultant mixture was centrifuged. Aliquots of the supernatant were subjected to bioanalysis using LC‐MS/MS (see Table S1‐D).
The final protein concentration in the reaction mixture was set at 0.1 mg/mL. The values in parentheses represent the final concentrations of compounds added in each reaction mixture. […]

[5] = system: human cryopreserved hepatocytes; test: In vitro metabolite profiling in human cryopreserved hepatocytes; assay type: in vitro ADME; details: human hepatocytes
Method: as §1

[6] = Pharmacokinetics of MGS0008 in rats (intravenous or oral); assay type: in vivo, rat; details: fasted male rats
Method: as §2, §3

[7] = Pharmacokinetics of MGS0008 in monkeys (intravenous or oral); assay type: in vivo, cynomolgus monkey; details: fed male monkeys; for AUC(0-t): read-out: AUC0–24h
Method: as §2, §3

[8] = system: conditioned avoidance responses; details: rat; cited from earlier work
[9] = system: monkey cryopreserved hepatocytes; test: In vitro metabolite profiling in monkey cryopreserved hepatocytes; assay type: in vitro ADME; details: monkey hepatocytes
Method: as §1

[10] = CSF, read-out: CSF concentration
[11] = plasma, read-out: Plasma concentration
[12] = Wistar, rat, MGS0008 intravenous 3 mg/kg, plasma
[13] = Wistar, rat, MGS0008 oral 3 mg/kg, plasma
[14] = cynomolgus monkey, MGS0008 intravenous 1 mg/kg, plasma
[15] = cynomolgus monkey, MGS0008 oral 1 mg/kg, plasma

For `N[C@]1(C(=O)O)[C@H]2[C@@H](C[C@@H]1F)[C@@H]2C(=O)O` [MGS0008, (1S,2S,3S,5R,6S)‐2‐amino‐3‐fluorobicyclo[3.1.0]hexane‐2,6‐dicarboxylic acid], the “further metabolism of MGS0008 in hepatocytes” value (“further metabolism of MGS0008” below) [1] was “no metabolites”, the Kp ([2]; CSF/plasma, read-out: CSF/plasma AUC ratio) was 0.028 and the concentration at 1.5 h [2, 10] was 19.1 ± 5.08 ng/mL. It also gave a concentration at 4 h [2, 10] of 7.88 ± 1.04 ng/mL, a concentration at 6 h [2, 10] of 4.84 ± 0.384 ng/mL and a concentration at 24 h [2, 10] of 2.04 ± 0.0265 ng/mL. It also gave an AUC(0-t) ([2]; CSF, read-out: AUC0–24h in CSF) of 123 ± 7.37 ng·h/mL, a concentration at 1.5 h [2, 11] of 1980 ± 431 ng/mL and a concentration at 4 h [2, 11] of 138 ± 64.2 ng/mL. The concentration at 6 h [2, 11] was 6.23 ± 1.83 ng/mL, the concentration at 24 h ([2]; plasma, below lower limit of quantification, read-out: Plasma concentration) was under 3 ng/mL and the AUC(0-t) ([2]; plasma, read-out: AUC0–24h in plasma) was 4330 ± 719 ng·h/mL. The “agonist activity for mGlu2/3 receptors” value [3] was “potent agonist activity”, the IC50 [4] was over 100 µM and the “further metabolism of MGS0008” value [5] was “not metabolized”. It also gave a concentration at 24 h ([6]; Wistar, rat, plasma, other: intravenous or oral, MGS0008 intravenous or oral 3 mg/kg, below lower limit of quantification) of under 3 ng/mL, a clearance ([6]; Wistar, rat, plasma, MGS0008 intravenous 3 mg/kg, mean ± SD (n = 3), read-out: CLtotal (converted)) of 9.13 mL/min/kg and a Vd ([6]; Wistar, rat, plasma, MGS0008 intravenous 3 mg/kg, mean ± SD (n = 3), read-out: Vdss) of 0.545 ± 0.0939 L/kg. The bioavailability ([6]; Wistar, rat, plasma, MGS0008 oral 3 mg/kg, AUC0-∞ oral / AUC0-∞ intravenous × 100) was 78.1%, the CL renal ([6]; Wistar, rat, urine and plasma, MGS0008 intravenous 3 mg/kg) was 8.52 mL/min/kg and the AUC(0-inf) [6, 12] was 5480 ± 293 ng·h/mL. It also gave a half-life [6, 12] of 1.54 ± 0.06 h, an AUC(0-inf) [6, 13] of 4280 ± 478 ng·h/mL and a Cmax [6, 13] of 1990 ± 64.3 ng/mL. The Tmax [6, 13] was 1.17 ± 0.289 h, the half-life [6, 13] was 0.968 ± 0.031 h and the “Urinary excretion (unchanged form)” value ([6]; MGS0008 intravenous 3 mg/kg, within 48 hours, % of administered dose, 3 mg/kg) was 93.2% and 93.2 ± 4.69%. For the same molecule, the concentration at 24 h ([7]; cynomolgus monkey, plasma, MGS0008 intravenous 1 mg/kg, below lower limit of quantification) was under 3 ng/mL, the clearance ([7]; cynomolgus monkey, plasma, MGS0008 intravenous 1 mg/kg, mean ± SD (n = 4), read-out: CLtotal (converted)) was 2.15 mL/min/kg and the Vd ([7]; cynomolgus monkey, plasma, MGS0008 intravenous 1 mg/kg, mean ± SD (n = 4), read-out: Vdss) was 0.181 ± 0.0214 L/kg. The bioavailability ([7]; cynomolgus monkey, plasma, MGS0008 oral 1 mg/kg, AUC0-24h oral / AUC0-24h intravenous × 100) was 3.8 ± 2.8%, the CL renal ([7]; cynomolgus monkey, urine and plasma, MGS0008 intravenous 1 mg/kg) was 2.07 mL/min/kg and the half-life [7, 14] was 1.48 ± 0.0435 h. It also gave an AUC(0-t) [7, 14] of 7830 ± 776 ng·h/mL, a Cmax [7, 15] of 20.5 ± 11.5 ng/mL and a Tmax [7, 15] of 9 ± 10 h. For the same molecule, the AUC(0-t) [7, 15] was 281 ± 177 ng·h/mL, the vomiting ([7]; MGS0008 intravenous 1 mg/kg) was “three of the four monkeys experienced transient vomiting” and the “Urinary excretion (unchanged form)” value ([7]; MGS0008 intravenous 1 mg/kg, within 48 hours, % of administered dose, 1 mg/kg) was 96.4% and 96.4 ± 7.51%. The conditioned avoidance responses [8] was “reduced” and the “further metabolism of MGS0008” value [9] was “no metabolites”.
